From patent US9944991B2, “Compositions and methods for diagnosis, prognosis and treatment of hematological malignancies” (Dana-Farber Cancer Institute, Inc., priority 2012, dated 2018)
Values belong to the compound of their own block, whether it stands above or below them.

How the values were obtained:
BCWM.1 cells [1] = test: Antibody-dependent cell-mediated cytotoxicity assay (ADCC); assay type: cell-based, human; settings: E/T ratio of 10:1; rituximab 10 μg/mL, everolimus 1 nM, bortezomib 5 nM
Method: Briefly, interleukin-2 (IL-2; R&D, Minneapolis, Minn.)-activated PBMCs were used as effector cells and calcein-AM-labeled BCWM.1 cell line, as targets. PBMCs were separated from leukopheresis products from healthy donors over Ficoll-Hypaque solution after informed consent. Effector cells were used immediately at 37° C. in RPMI complete media after being activated with IL-2 (100 UI/mL for 36 hours). Target cells were labeled with calcein-AM for 1 hour at 37° C., washed thrice, and plated in triplicate in 96-well plates (5000 cells per well). ADCC was performed in the presence of rituximab (10 μg/mL) or human control IgG1 (2 ng/mL) at various effector-target (E/T) ratios (10:1, 20:1, and 40:1). The 96-well plates were centrifuged at 30 g for 2 minutes at room temperature, followed by a 4-hour incubation at 37° C. Culture supernatants were transferred to a Black ViewPlate-96 plate and read on Wallac VICTOR2 using 492/520 nm filter set (Perkin Elmer). Combinatory studies using everolimus (1 nM), Bortezomib (5 nM) and Rituximab (10 μg/mL) were also performed. This assay was valid only if (mean maximum release−medium control release)/(mean spontaneous release−medium control release) was more than 7. Spontaneous release is the CPM in the supernatant from wells containing target cells alone. Maximum release is the supernatants of wells containing target cells and Triton X-100. […]

BCWM.1 cells [2] = test: Western blot of p-4EBP1 and p-70S6K in BCWM.1 cells cultured with HUVECs; settings: 0.01-10 nM, 6 hours
[3] = test system: WM and IgM low grade lymphoma cell lines (BCWM.1, MWCL.1 and RL); test: Adhesion to primary WM bone marrow stromal cells; assay type: cell-based, human; settings: 0.01-1 nM
Method: (§1) The bone marrow (BM) microenvironment confers growth and induces drug resistance in malignant cells (Mitsiades C. S. et al., Eur. J. Cancer., 42(11):1564-73 (2006)). It was therefore sought to determine the anti-tumor activity of everolimus in the presence of the BM microenvironment. It was first investigated whether everolimus inhibits WM cell growth in the context of the BM milieu. BCWM.1 cells were exposed to everolimus (0.1-10 nM) in the presence or absence of BMSCs for 48 hours. The viability of BMSCs assessed by MTT was not affected by everolimus treatment (data not shown). […] Next, the efficacy of everolimus in affecting migration and adhesion of WM cells was evaluated. […] To study the effect of everolimus on the migration of WM cells, BCWM.1 cells were incubated with everolimus (0.01-1 nM) for 4 hours. […] Cells were then subjected to migration as previously reported (Roccaro A. M. et al., Blood, 113(26):6669-80 (2009)).

BCWM.1 and MWCL.1 cells [4] = test: Caspase-9, caspase-3 and PARP cleavage (Western blot, Caspase 3/7 Glo Assay); assay type: cell-based, human; settings: 0.1-10 nM, 24 hours
Method: WM cell lines have been exposed to everolimus (0.1-10 nM) for 24 hours and caspase activation has been assessed using Caspase 3/7 Glo Assay (Promega, Madison, Wis.), according to manufacturer's procedure.

NF-κB p65 = NF-κB p65 DNA-binding activity (Active Motif TransAM) in nuclear extracts; assay type: cell-based, human; settings: BCWM.1 and MWCL.1; everolimus 1 nM or bortezomib 5 nM, 4 hours; TNF-α 10 ng/mL
Excerpt: NF-κB activity was investigated using the Active Motif TransAM kits, a DNA-binding enzyme-linked immunosorbent assay (ELISA)-based assay (Active Motif North America, Carlsbad, Calif.).

HUVECs = test: Morphogenesis assay on Matrigel (capillary tubule formation); assay type: cell-based, human
Method: Unpolymerized Matrigel (17 mg/mL; Becton Dickinson, Mountain View, Calif.) was placed (50 μL/well) in a 96-well microtiter plate (0.32 cm2/well) and polymerized for 1 hour at 37° C. HUVECs and MMECs (5×10^3 per well) in 200 μL of DMEM/10% FCS (positive control), serum-free medium (negative control), as well as in the presence or absence of everolimus (0-0.01-0.1-1-10 nM) were layered onto the Matrigel surface. After 6 hours of incubation in a 5% CO2 humidified atmosphere at 37° C., cell growth and tridimensional organization were observed using a reverted phase-contrast light microscope, as described (Roccaro A. M. et al., Cancer Res., 66(1):184-91 (2006)).

BCWM.1 and MWCL.1 cells [5] = test: MTT cytotoxicity in miRNA-155 knockdown probe-transfected WM cell lines; assay type: cell-based, human; settings: 0.1-1-10 nM, 48 hours, knockdown probe vs scramble probe
[6] = patients with relapsed or refractory WM, oral; cited from earlier work
BCWM.1 cells [7] = test: [3H]-TdR uptake of BCWM.1 cells adherent to BMSCs; assay type: cell-based, human; settings: 0.1-10 nM, 48 hours
Method: as §1

[8] = test system: WM and IgM low-grade lymphoma cells (BCWM.1; MWCL.1; RL); test: DNA fragmentation (Cell Death Detection ELISA), apoptosis; assay type: cell-based, human; settings: 0.1-10 nM, 24 hours
Excerpt: Cell Death Detection ELISA (Roche Applied Science, Indianapolis, Ind.) was used to quantify DNA fragmentation, as per the manufacturer's instructions, and as previously described (Sacco A. et al., Clin Cancer Res., 17(7):1753-64 (2011)).

BCWM.1 cells [9] = test: MTT cytotoxicity assay; assay type: cell-based, human
BCWM.1 cells [10] = test: Immunoblotting of cyclin D1, cyclin D2, p27Kip1, p21Cip1; assay type: cell-based, human; settings: 0.1-10 nM, 12 hours
[11] = test system: primary peripheral blood-derived CD19+ cells; test: MTT cytotoxicity on healthy donor cells; assay type: cell-based, human; settings: healthy individuals, 60-1000 nM, 48 hours
miRNA-155 = test: qRT-PCR of miRNA-155 level in WM cell lines; assay type: cell-based, human; settings: BCWM.1; MWCL.1; 0.1-1-10 nM, 12 hours
Method: qRT-PCR for miRNA-155 (TaqMan microRNA Assays, Applied Biosystems, Foster City, Calif.) was performed on an Applied Biosystems AB7500 Real Time PCR system.

BCWM.1 cells [12] = test: Transwell migration assay towards SDF-1; assay type: cell-based, human; settings: 0.01-1 nM, 4 hours, 30 nM SDF-1
Method: Transwell migration assay (Costar; Corning, Acton, Mass.) was performed using BCWM.1 cells in the presence or absence of 30 nM SDF-1, as described (Azab A. K., et al., Blood, 114(3):619-29 (2009)).
as §1

mTOR = test: Western blot of p-mTOR, p-p70S6K, p-4EBP1 in BCWM.1 and MWCL.1 cells; assay type: cell-based, human; settings: 0.1-10 nM, 6 hours
[13] = test system: mammalian target of rapamycin (mTOR); test: Immunohistochemistry of p-4EBP1 and p-S6R in bone marrow biopsies pre- and post-everolimus; assay type: in vivo, human
Excerpt: Bone marrow biopsies from WM patients at pretreatment and at the end of therapy were fixed in Zenker's formalin, embedded in paraffin blocks, and sectioned. Sections were stained for phospho(p)-4EBP1 and p-S6R (Cell Signaling Technology, Inc.). Signal quantification for each target was obtained from four different areas, on matched pre- and post-everolimus treatment of 4 patients presenting with partial response; and on matched pre- and post-everolimus treatment of 3 patients presenting with stable disease. Numbers of positive cells were obtained on 4 different fields of the bone marrow biopsy, and average and standard deviation provided, as previously described (Fingar D. C. et al., Mol. Cell. Biol., 24(1):200-16 (2004).
In contrast, everolimus-dependent modulation of phosphorylated ribosomal protein S6 (phospho(p)-S6R) and p-4EBP1 was not observed in those patients with stable disease (FIG. 9C).

WM-WSU, RL, MWCL.1 cells = test: MTT cytotoxicity on IgM low-grade lymphoma cells; assay type: cell-based, human; settings: 0.01-40 nM, 48 hours
BCWM.1 cells [14] = test: [3H]-thymidine uptake of BCWM.1 cells in presence of endothelial cells (HUVECs); assay type: cell-based, human; settings: 0.01-10 nM, 48 hours
[15] = test system: primary WM bone-marrow derived CD19+ cells; test: MTT cytotoxicity on primary WM cells; assay type: cell-based, human; settings: 0.1-10 nM, 48 hours, 4 patients with relapsed/refractory WM
Method: Next, it was sought to determine the underlying mechanisms that led to everolimus-dependent anti-tumor effect in WM. The activity of everolimus in targeting WM cells was tested in primary WM CD19^+ cells, and WM and IgM secreting lymphoma cell lines (BCWM1; MWCL.1; RL), as well as in normal PBMC-derived CD19^+ cells. […] Everolimus-induced toxicity in WM and IgM secreting lymphoma cell lines was subsequently validated.

BCWM.1 cells [16] = test: Cell cycle analysis, PI staining and flow cytometry; assay type: cell-based, human; settings: for cells in S phase: 12 hours (control 36.29%); for G1 phase BCWM.1 cells: 12 hours (control 52.52%)
BMSCs = test: MTT viability of BMSCs; assay type: cell-based, human; settings: 0.1-10 nM, 48 hours
Method: as §1

BCWM.1 cells [17] = test: Thymidine uptake cell proliferation assay; assay type: cell-based, human; settings: 0.01-40 nM, 48 hours
BCWM.1 cells [18] = settings: everolimus 0.5 nM alone, 48 hours

Compound: rituximab: the anti-CD20 antibody, rituximab
specific lysis (BCWM.1 cells [1]): 37.7%

TNF-α-induced NF-κB recruitment to the nucleus, single agents (NF-κB p65): similarly inhibited
Compound: CO[C@H]1C[C@@H]2CC[C@@H](C)[C@@](O)(O2)C(=O)C(=O)N2CCCC[C@H]2C(=O)O[C@H]([C@H](C)C[C@@H]2CC[C@@H](OCCO)[C@H](OC)C2)CC(=O)[C@H](C)/C=C(\C)[C@@H](O)[C@@H](OC)C(=O)[C@H](C)C[C@H](C)/C=C/C=C/C=C/1C [everolimus, 40-O-(2-hydroxyethyl) derivative of sirolimus (rapamycin)]
endothelial cell-dependent phosphorylation of 4EBP1 and 70SK in WM cells (BCWM.1 cells [2]): inhibited endothelial cell-dependent phosphorylation of 4EBP1 and 70SK
cell adhesion to primary WM bone marrow stromal cells [3]: inhibited WM cell adhesion in a dose-dependent manner
caspase-9, -3 and PARP cleavage (BCWM.1 and MWCL.1 cells [4]): induced caspase-9, -3 and PARP cleavage in a dose dependent manner
capillary formation (HUVECs; 1 nM everolimus): almost complete inhibition of capillary formation
endothelial cell morphogenesis on Matrigel (HUVECs; 0.01-10 nM): inhibited endothelial cell morphogenesis on Matrigel in a dose-dependent manner
everolimus-dependent induction of toxicity after miRNA155 knock down (BCWM.1 and MWCL.1 cells [5]): partially inhibited by knocking down miRNA155
minor response [6]: 28%
overall response rate [6]: 70%
partial response (PR) [6]: 42%
BMSC-triggered proliferation of BCWM.1 cells (BCWM.1 cells [7]): inhibited by everolimus in a dose-dependent manner
apoptosis (DNA fragmentation) [8]: induced apoptosis in a dose-dependent manner
cytotoxicity at doses used for migration (BCWM.1 cells [9]; 0.01-1 nM, 4 hours): did not induce cytotoxicity
cytotoxicity (BCWM.1 cells [9]; 0.01-40 nM, 48 hours): inducing cytotoxicity in a dose-dependent manner
cyclin D1 and cyclin D2 (BCWM.1 cells [10]): down-regulation
cyclin kinase inhibitor proteins p27Kip1, p21Cip1 (BCWM.1 cells [10]): up-regulation
cytotoxicity [11]: did not show cytotoxicity
miRNA155 level (miRNA-155): inhibited miRNA155 level in a dose-dependent manner
migration towards SDF-1 (BCWM.1 cells [12]): inhibited WM cell migration towards SDF-1, in a dose-dependent manner
migration towards SDF-1 (BCWM.1 cells [12]; listed as Everolimus): inhibited SDF-1-induced migration
p-mTOR, p-p70S6K and p-4EBP1 (mTOR): inhibition
phosphorylation of S6R and 4EBP1 in bone marrow biopsies ([13]; patients with partial response, pre- vs post-everolimus): inhibition of phosphorylation
modulation of p-S6R and p-4EBP1 in bone marrow biopsies ([13]; patients with stable disease): not observed
cytotoxicity (WM-WSU, RL, MWCL.1 cells): induction of cytotoxicity was validated
WM cell proliferation in presence of endothelial cells (BCWM.1 cells [14]): reduced WM cell proliferation, despite the presence of endothelial cells
cytotoxic effect [15]: significantly induced toxicity in all the 4 samples
cells in S phase (BCWM.1 cells [16]; 0.1 nM everolimus): 29.14%
G1 phase BCWM.1 cells (BCWM.1 cells [16]; 0.1 nM everolimus): 61.25%
cells in S phase (BCWM.1 cells [16]; 1 nM everolimus): 21.71%
G1 phase BCWM.1 cells (BCWM.1 cells [16]; 1 nM everolimus): 70.98%
cell cycle progression (BCWM.1 cells [16]; 0.1-10 nM, 12 hours): cell cycle arrest
viability of BMSCs (BMSCs): not affected
cell proliferation (BCWM.1 cells [17]): inhibiting cell proliferation
cytotoxicity, % of BCWM.1 cells (BCWM.1 cells [18]): 24%
